US20120122727A1, “IN VITRO METHOD FOR PREDICTING WHETHER A COMPOUND IS GENOTOXIC IN VIVO” (priority 2009, published 2012)

Test system: primary mouse hepatocytes
Test: Gene expression (Affymetrix Mouse Genome 430 2.0) in primary mouse hepatocytes, true vs false GTX, 24 h and 48 h
Conditions: log2, corrected for vehicle control

CC(=O)Nc1ccc2c(c1)Cc1ccccc1-2 [2-AAF, 2-Acetylaminofluorene]
Gene expression data AF000969 (Cadps2) (24 h average): −0.5371 | Gene expression data AF022072 (Grb10) (24 h average): 0.5527 | Gene expression data AF065917 (Lif) (24 h average): −0.1242 | Gene expression data AF204959 (Cyp3a25 /// LOC622249) (24 h average): 0.2152 | Gene expression data AF297615 (Ggta1) (24 h average): 0.03187 | Gene expression data AI594683 (Dmn) (24 h average): −0.2452 | Gene expression data AI596632 (Ptprg /// LOC632664) (24 h average): −0.0981 | Gene expression data AI987929 (Ndrg1) (24 h average): 0.8432 | Gene expression data AK004419 (Fbxl17) (24 h average): −0.168 | Gene expression data AK005731 (1700007K13Rik) (24 h average): 0.08277 | Gene expression data AK007766 (1810044A24Rik) (24 h average): 0.01003 | Gene expression data AK007854 (1810053B23Rik) (24 h average): −0.9008 | Gene expression data AK009736 (Gpr137b /// LOC664862 /// LOC673335) (24 h average): −0.00723 | Gene expression data AK010447 (Smyd3) (24 h average): −0.1751 | Gene expression data AK014608 (4632434l11Rik) (24 h average): −0.09823 | Gene expression data AK019979 (2610528E23Rik) (24 h average): 0.3248 | Gene expression data AV095209 (Mthfd1l) (24 h average): 0.4403 | Gene expression data AV141095 (1110033M05Rik) (24 h average): −0.2881 | Gene expression data AV173571 (1700106N22Rik) (24 h average): −0.04133 | Gene expression data AV219418 (Ldhb) (24 h average): −0.3695 | Gene expression data AV223474 (Zdhhc14) (24 h average): −0.4459 | Gene expression data AV298304 (Homez) (24 h average): −0.1831 | Gene expression data AV327248 (Zfp365 /// LOC674611) (24 h average): 0.0668 | Gene expression data AV377066 (9130221J18Rik) (24 h average): −0.6586 | Gene expression data AW240761 (Tbc1d5) (24 h average): −0.0924 | Gene expression data AW543460 (Pard3) (24 h average): −0.3156 | Gene expression data AW543723 (24 h average): 0.1065 | Gene expression data AW986246 (Maoa) (24 h average): 0.01853 | Gene expression data BB027848 (4732466D17Rik) (24 h average): −0.252 | Gene expression data BB043558 (9230114K14Rik) (24 h average): −0.1205 | Gene expression data BB275142 (AW456874) (24 h average): −0.02303 | Gene expression data BB308836 (Ppm1l) (24 h average): −0.1499 | Gene expression data BB318221 (Zdhhc14) (24 h average): −0.411 | Gene expression data BB463610 (4632434l11Rik) (24 h average): −0.3778 | Gene expression data BB526605 (Mipol1) (24 h average): 0.3466 | Gene expression data BB770528 (Rai2) (24 h average): −0.5052 | Gene expression data BB821363 (Scfd2) (24 h average): −0.1216 | Gene expression data BC004827 (Psat1) (24 h average): 0.2797 | Gene expression data BC008626 (Icam1) (24 h average): −0.6353 | Gene expression data BC010462 (BC010462) (24 h average): −0.1475 | Gene expression data BC012247 (Dcxr) (24 h average): −0.08253 | Gene expression data BC012260 (Psmf1) (24 h average): −0.646 | Gene expression data BC015270 (Hist2h3c2) (24 h average): −0.1327 | Gene expression data BC016073 (Cdkal1) (24 h average): −0.1464 | Gene expression data BC016265 (Ube2e2) (24 h average): −0.3984 | Gene expression data BC019882 (Acaa1b) (24 h average): 1.3218 | Gene expression data BC025501 (Aaas) (24 h average): −0.1475 | Gene expression data BC025837 (Sbk1) (24 h average): −0.2976 | Gene expression data BC025915 (Cova1) (24 h average): −0.1568 | Gene expression data BC026422 (Tgm1) (24 h average): −0.1664 | Gene expression data BF719766 (Thyn1) (24 h average): −0.0442 | Gene expression data BG065754 (Ccng1) (24 h average): 0.0569 | Gene expression data BG066903 (Kif16b) (24 h average): −0.2125 | Gene expression data BG069873 (Gnb1l) (24 h average): −0.2747 | Gene expression data BG070887 (Gtdc1) (24 h average): −0.01607 | Gene expression data BG076151 (Ppm1d) (24 h average): −0.1219 | Gene expression data BG261907 (Large) (24 h average): −0.2502 | Gene expression data BI651416 (Cdc42bpg) (24 h average): 0.1552 | Gene expression data BI660702 (Ell3) (24 h average): 0.1219 | Gene expression data BM198879 (Ercc5) (24 h average): −0.2382 | Gene expression data BM230508 (A030007D23Rik) (24 h average): 0.282 | Gene expression data NM_007987 (Fas) (24 h average): 0.06923 | Gene expression data NM_008522 (Ltf) (24 h average): 0.1277 | Gene expression data NM_008576 (Abcc1) (24 h average): 0.3321 | Gene expression data NM_011176 (St14) (24 h average): −0.03387 | Gene expression data NM_011316 (Saa4) (24 h average): −0.3157 | Gene expression data NM_012006 (Acot1) (24 h average): 1.9403 | Gene expression data NM_013866 (Zfp385) (24 h average): −0.136 | Gene expression data NM_018770 (Igsf4a) (24 h average): −0.2065 | Gene expression data NM_021451 (Pmaip1) (24 h average): −0.7054 | Gene expression data NM_025770 (Atg10) (24 h average): 0.01663 | Gene expression data NM_028803 (Gbe1) (24 h average): −0.2716 | Gene expression data NM_030697 (Ankrd47) (24 h average): −0.252 | Gene expression data NM_053168 (Trim11) (24 h average): −0.2676 | Gene expression data NM_134188 (Acot2) (24 h average): 0.597 | Gene expression data Y15910 (Diap2) (24 h average): −0.366 | Gene expression AA561726 average (48 h): −0.7419 | Gene expression AF000969 average (48 h): −0.8319 | Gene expression AF022072 average (48 h): 0.0482 | Gene expression AF033112 average (48 h): −0.03947 | Gene expression AF055573 average (48 h): −0.2895 | Gene expression AF069954 average (48 h): 0.3518 | Gene expression AF297615 average (48 h): −0.6791 | Gene expression AF335325 average (48 h): −0.3088 | Gene expression AI594683 average (48 h): −0.05213 | Gene expression AI747296 average (48 h): −0.5003
